Entries after “also recorded” stand apart in the source; their conditions may differ.
Key:
nodose neurons = assay: Patch-clamp electrophysiology of nodose neurons cultured alone; assay type: cell-based, mouse; conditions: 10-20 mM D-glucose
iGluSnFR-HEK cells = iGluSnFR-HEK cells cultured alone, multiphoton imaging; assay type: cell-based; conditions: D-glucose 40 mM
Description: HEK 293/17 cells (ATCC CRL-11268) were maintained in DMEM (Gibco 11965) supplemented with 10% FBS (Corning 35-010-CV), Glutamax, and non-essential amino acids (both Gibco). Cells were transfected with 1 ug plasmid pCMV(MinDis) iGluSnFR (Addgene 41732) using 1 ul Lipofectamine 2000 in Optimem (Gibco) in 24-well plates.
The 5.2 Kb iGluSnFR (pCMV(MinDis).iGluSnFR was a gift from Loren Looger; Addgene plasmid #41732) was moved to the zeocin resistant backbone of Addgene #51694 (DRH296: FCK-Optopatch2 was a gift from Adam Cohen) as a NdeI+XhoI fragment. The resulting plasmid (pMEK8) was transfected into HEK 293/17 cells (ATCC CRL-11268) using 1 μl Lipofectamine 2000/ug DNA. Cells were maintained in DMEM (Gibco 11965) supplemented with 10% FBS (Corning 35-010-CV), Glutamax, non-essential amino acids (both Gibco) and 3 μl/ml zeocin ([…], Invitrogen).
(§1) CckCRE_tdTomato enteroendocrine cells were isolated as described above. Isolated cells were mixed with iGluSnFR-HEK cells at a ratio of 10:1, then plated on 1% Matrigel coated coverslips. Control iGluSnFR-HEK cells were plated alone. Cells were incubated for 12-18 hours before imaging. Coverslips were imaged using a multiphoton microscopy system (Bruker Ultima IV with a Chameleon Vision II tunable laser). Imaging frames were captured at 1.876 fps, using 920 nm light. Imaging series were analyzed using Fiji (ImageJ), and cell traces were plotted with Excel.

[1] = tested on: intestinal CCK enteroendocrine cells; assay: Calcium imaging (GCaMP6s) of enteroendocrine cells in CckCRE_tdTomato intestinal organoids; assay type: cell-based, mouse; conditions: n=3
Description: For neurons, Phox2bCRE_GCaMP6s (n=3) nodose neurons were dissociated and plated. Nodose ganglia were dissected and digested in Liberase (Roche, 5401054001). Neurons were washed and filtered through a 70 μm cell strainer, then plated on 12 mm coverslips and placed in an incubator overnight. Cells were imaged 1-2 days later. Coverslips were placed in the recording chamber of a Zeiss Examiner Z1 and imaged with a Hamamatsu camera (Orca-flash4.0; C11440) using the Zeiss ZEN software package. For enteroendocrine cells, CckCRE_tdTomato organoids with transduced with ΔG-rabies-GCaMP6s. Organoids were imaged using multi photon microscopy 3-4 days after transduction. Imaging buffer (in mM: 140 NaCl, 5 KCl, 2 CaCl2, 2 MgCl2, 10 HEPES) was continuously perfused over the coverslips. […] Images were analyzed with Fiji ([…]), and cell traces were plotted with Matlab.

enteroendocrine cells = assay: iGluSnFR-HEK cell and CckCRE_tdTomato enteroendocrine cell co-culture, imaging of glutamate release; assay type: cell-based, mouse; conditions: D-glucose 40 mM, n=3 cultures
Description: as §1

[2] = tested on: vagal nodose neurons connected to enteroendocrine cells; assay: Patch-clamp electrophysiology of nodose neurons co-cultured with enteroendocrine cells; assay type: cell-based, mouse; conditions: D-glucose (10 mM); for excitatory postsynaptic potentials and action potentials in connected neurons: co-culture
Description: The small intestines of CckGFP and CckCRE_ChR2-tdTomato mice were dissected and flushed twice with cold PBS. The intestine was cut open lengthwise and cut again into ˜1 cm pieces. Tissue pieces were incubated with 3 mM EDTA at 4° C. for 15 minutes then at 37° C. for 15 minutes. New cold PBS was added and villi and crypts were mechanically detached. Villi and crypts were spun down and further digested in Collagenase and Dispase. Cells were spun down and re-suspended in L-15 media with 5% FBS and DNase to prevent cell clumping. Cells were passed through a 70 μm then 40 μm cell strainer to isolate single cells. Then cells were sorted using Fluorescence Activated Cell sorting (BD FACSAria) selecting for GFP fluorescence cells. Cells were sorted into culture media: 10 μl/ml Glutamax, 10 μl/ml HEPES, 20 μl/ml Penicillin-Streptomycin, 10 μl/ml N2 supplement, 20 μl/ml B27 supplement, 0.25 μl/ml EGF, 0.5 μl/ml Noggin, 1 μl/ml r-Spondin and 1 μl/ml NGF in Advanced DMEM/f12. Sorted cells were plated on Matrigel coated 12 mm coverslips at a concentration of ˜8-10 k enteroendocrine cells per coverslip. Nodose neurons were dissected and incubated with Liberase digestion enzyme. Enzyme was washed off and replaced with media. Single cells were dissociated by mechanical force and filtered through a 70 μm cell strainer. Neurons in media were plated evenly on up to 8 coverslips with enteroendocrine cells. Patch-clamp electrophysiology was performed 1-5 days after plating.
Enteroendocrine cells and nodose neurons were co-cultured as described above. Co-culture coverslips were placed in the recording chamber filled with extracellular solution. Recordings were carried out at room temperature using a MultiClamp 700B amplifier (Axon Instruments), digitized using a Digidata 1550A (Axon Instruments) interface, and pClamp software (Axon Instruments) for data acquisition. Data was filtered at 1 kHz and sampled at 10 kHz. CCK-producing enteroendocrine cells were identified by GFP expression and neurons by their morphology and lack of fluorescence. Recordings were made using borosilicate glass pipettes pulled to ˜3.5 MΩ resistance [DVB4]. Extracellular solution contained (in mM): 140 NaCl, 5 KCl, 2 CaCl2, 2 MgCl2, 10 HEPES, pH 7.4 (300-305 mOsmol). For voltage-clamp recordings, intracellular solution contained (in mM): 140 CsF, 10 NaCl, 0.1 CaCl2, 2 MgCl2, 1.1 EGTA, 10 HEPES, 10 sucrose (pH, 7.25, 290-295 mOsmol). For current-clamp recordings, intracellular solution contained (in mM): 140 KCl, 0.5 EGTA, 5 HEPES, 3 Mg-ATP, 10 sucrose (pH, 7.25, 290-295 mOsmol). Neurons were held at −70 mV for 5 min after patching in voltage-clamp mode (to stabilize cells), and then switched to the current-clamp mode. At the resting membrane potential, cell properties such as input resistance, and spike threshold were determined using 200 ms steps from −40 pA to 100 pA in 20 pA increment. […] After glucose exposure, neurons were tested with a current or voltage pulse to confirm the health of the cell. For glutamate receptor blocker experiments, the […]® Micro-perfusion system (Automate Scientific, Inc.) was used. Once the neuron was patched, the […]® nozzle was brought to within 100 μm of the cell, while extracellular solution was perfusing. Kynurenic acid (3 mM) was perfused, then washed for 5 minutes after and the neuron was tested again. EPSC responses were recorded for 1 second after light stimulation. Data are presented as the mean±S.E.M. and significance was determined using a two-tailed Student's t test.

O=C[C@H](O)[C@@H](O)[C@H](O)[C@H](O)CO [D-glucose]
excitatory currents / action potentials in nodose neurons cultured alone (nodose neurons): neither excitatory currents nor action potentials were observed
excitatory currents / action potentials in nodose neurons cultured alone (nodose neurons; listed as glucose): did not activate
fluorescence response of iGluSnFR-HEK cells cultured alone (iGluSnFR-HEK cells): did not respond
fluorescence response of iGluSnFR-HEK cells cultured alone (iGluSnFR-HEK cells; listed as Dglucose): not
magnitude of the sugar response as percent fluorescence of the KCl response ([1]; 20 mM D-glucose, 40 mM KCl control): 56.0±20%
calcium transients, percent of the KCl control response ([1]; D-glucose (10 mM) as printed): 56.0%±20.0
fluorescence response of iGluSnFR-HEK cells in close proximity to enteroendocrine cells (glutamate release) (enteroendocrine cells): rapidly fluoresced green; also recorded: elicits a response
excitatory postsynaptic potentials and action potentials in connected neurons [2]: evoke excitatory postsynaptic potentials and action potentials
excitatory postsynaptic potentials and action potentials in connected neurons ([2]; listed as glucose): evoked EPSCs; also recorded: induced excitatory post-synaptic potentials and action potential spikes
action potentials in the connected neurons (average) ([2]; current-clamp, n=5 pairs): 2±0.32
average current of the excitatory post-synaptic potentials (EPSPs) ([2]; voltage-clamp, n=6): 61.65±15.21 pA
average frequency of the excitatory post-synaptic potentials ([2]; voltage-clamp, n=6): 0.86±0.17 Hz

From patent US20200147149A1, “COMPOSITIONS AND METHODS FOR THE MODULATION OF GUT SENSORY CELLS” (Duke University, priority 2017, published 2020)
